Results on 16 molecules are retold here after PubChem BioAssay (NCI).

Test systems include IGROV1 ovarian; SF-295 CNS; M14 melanoma; TK-10 renal; SNB-75 CNS; NCI-H460 lung; HCT-15 colon; OVCAR-3 ovarian; DU-145 prostate; T-47D breast; MDA-N.
Holding throughout (assay): NCI anticancer screen, dose series, 48 h

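Each compound was tested at five concentrations against cells in 96-well plates for 48 hours. Here, GI50 denotes the concentration required for 50% inhibition of growth. TGI: total growth inhibition.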 Some results are limits rather than exact numbers.

For `[N-]=[N+]=NC(c1cn(C2CC(O)C(CO)O2)c(=O)[nH]c1=O)C(Br)I` (stereo unspecified), the TGI with IGROV1 ovarian, in the assay on SF-295 CNS, in the assay on M14 melanoma, in the assay with TK-10 renal, in the assay on SNB-75 CNS and with NCI-H460 lung was greater than 100 µM each time. Further, the TGI in the assay with HCT-15 colon and in the assay on OVCAR-3 ovarian was greater than 100 µM in each case.
Take `C=C(C)C(=O)O[C@H]1CC2(CO)O[C@@H]2CC/C(COC(C)=O)=C/C2OC(=O)C(=C)[C@@H]21` (stereo partly specified): the TGI is greater than 100 µM in the assay on IGROV1 ovarian; greater than 100 µM in the assay with DU-145 prostate; greater than 100 µM in the assay with SF-295 CNS; 49.1 µM with M14 melanoma; greater than 56.6 µM in the assay on TK-10 renal; greater than 100 µM in the assay on SNB-75 CNS. In addition, the TGI was greater than 100 µM with NCI-H460 lung, greater than 96.7 µM in the assay on HCT-15 colon, 79.6 µM in the assay with OVCAR-3 ovarian and greater than 79.2 µM in the assay on T-47D breast.
`COCCN(C(=O)c1ccccc1)C1CCC(=O)c2[nH]c3ccccc3c21` (stereo unspecified): the TGI in the assay on IGROV1 ovarian is 13.6 µM; with DU-145 prostate, 27.9 µM; in the assay on SF-295 CNS, greater than 56.8 µM; in the assay with M14 melanoma, 20.4 µM; with TK-10 renal it was 35.5 µM; in the assay with SNB-75 CNS it was 16.5 µM. The TGI in the assay with NCI-H460 lung stood at 34.9 µM; with HCT-15 colon, 31.9 µM; in the assay on OVCAR-3 ovarian, 25.3 µM; in the assay on T-47D breast, 34.4 µM.
For `COc1ccccc1NC(=O)CSC(N)=O`, the TGI in the assay with IGROV1 ovarian is greater than 100 µM; in the assay with SF-295 CNS, greater than 100 µM; in the assay on M14 melanoma it was greater than 100 µM; in the assay on TK-10 renal, greater than 100 µM; with SNB-75 CNS, 84.3 µM; in the assay with NCI-H460 lung, greater than 100 µM. For the same molecule, the TGI in the assay on HCT-15 colon and in the assay on OVCAR-3 ovarian was greater than 100 µM each time.
Take `Cc1cn([C@@H]2C[C@](C)(CO)N(C)O2)c(=O)[nH]c1=O`: the TGI in the assay on IGROV1 ovarian, in the assay on DU-145 prostate, with SF-295 CNS, in the assay on M14 melanoma, in the assay with TK-10 renal and in the assay with SNB-75 CNS was greater than 100 µM in each case. Further, the TGI in the assay with NCI-H460 lung, with HCT-15 colon and with MDA-N was greater than 100 µM throughout.
`C=C1C(=O)O[C@H]2[C@H]1CC/C(COC(=O)/C=C/C(=O)OC/C1=C/CC[C@@]3(C)O[C@H]3[C@H]3OC(=O)C(=C)[C@@H]3CC1)=C\CC[C@@]1(C)O[C@@H]21`: the GI50 with SF-295 CNS is 6.77 µM; in the assay on M14 melanoma, 1.26 µM; in the assay with SNB-75 CNS, 3.47 µM; in the assay with NCI-H460 lung, 5.2 µM. The TGI was greater than 100 µM in the assay with SF-295 CNS, 3.89 µM in the assay on M14 melanoma, 66.9 µM with SNB-75 CNS and greater than 100 µM in the assay on NCI-H460 lung.
On to `Nc1cc2ncnc(Nc3cccc(Br)c3)c2cn1`, for which the TGI with SF-295 CNS was 71.8 µM; in the assay with M14 melanoma, greater than 100 µM; with TK-10 renal, 8.18 µM; with SNB-75 CNS, greater than 100 µM; in the assay on NCI-H460 lung, greater than 100 µM; in the assay with HCT-15 colon, greater than 100 µM. Besides, the TGI in the assay with OVCAR-3 ovarian, with MDA-N and in the assay with T-47D breast was greater than 100 µM throughout.
On to `CCCCN(CCCC)C1=Nc2ccccc2-n2c(nnc2C(=O)OCC)C1`, for which the TGI in the assay with IGROV1 ovarian, in the assay on DU-145 prostate, in the assay on SF-295 CNS, in the assay with M14 melanoma, in the assay on TK-10 renal and in the assay with SNB-75 CNS was greater than 100 µM in each case. The TGI was 89.4 µM in the assay on NCI-H460 lung, greater than 100 µM in the assay with OVCAR-3 ovarian and greater than 100 µM in the assay with T-47D breast.
For the molecule `CCOC(=O)CC(=O)Sc1ccccc1`, the TGI with IGROV1 ovarian is 26 µM; with SF-295 CNS, 86.5 µM; in the assay on M14 melanoma it was 31.7 µM; with TK-10 renal, greater than 100 µM; in the assay on NCI-H460 lung it was 73.8 µM; with OVCAR-3 ovarian, 42.7 µM.
In the case of `c1ccc2c(c1)ccc1nc(-c3ccc4c(c3)OCO4)c3c(c12)CCC3`, the TGI in the assay on SF-295 CNS, in the assay with M14 melanoma, in the assay on SNB-75 CNS, with NCI-H460 lung, in the assay with HCT-15 colon and in the assay on OVCAR-3 ovarian was greater than 100 µM each time. Also, the TGI with MDA-N and in the assay on T-47D breast was greater than 100 µM each time.
Consider `Cc1cccc(=O)c([O-])c1.Cc1cccc(=O)c([O-])c1.Cc1cccc(=O)c([O-])c1.Cc1cccc(=O)c([O-])c1.[Th+4]`, for which the TGI in the assay on IGROV1 ovarian is greater than 100 µM; with SF-295 CNS, greater than 100 µM; in the assay on M14 melanoma, 42.1 µM; in the assay with TK-10 renal it was greater than 100 µM; in the assay on SNB-75 CNS, greater than 77.7 µM; with NCI-H460 lung, greater than 60.7 µM. In addition, the values for the TGI in the assay on HCT-15 colon and in the assay on OVCAR-3 ovarian were greater than 100 µM and greater than 22 µM, respectively.
`O=C(NCCNCCO)N/N=C/c1ccccc1`: the TGI in the assay with IGROV1 ovarian, with SF-295 CNS, with M14 melanoma, in the assay with TK-10 renal, in the assay on SNB-75 CNS and with NCI-H460 lung was greater than 100 µM each time. The TGI in the assay with HCT-15 colon and with OVCAR-3 ovarian was greater than 100 µM throughout.
For `CC(=O)Nc1ccc(C(=O)N2N=C(C)/C(=C/c3ccccc3O)C2=O)cc1`, the TGI in the assay on SF-295 CNS, in the assay with M14 melanoma, in the assay on TK-10 renal, in the assay on SNB-75 CNS, with NCI-H460 lung and in the assay with HCT-15 colon was greater than 100 µM throughout. The molecule also yielded a TGI with OVCAR-3 ovarian greater than 100 µM.
Take `Oc1ccc(O)c(Sc2nnc(CCCCCCCCc3nnc(Sc4cc(O)ccc4O)o3)o2)c1`: the TGI in the assay on IGROV1 ovarian, in the assay on DU-145 prostate, with SF-295 CNS, in the assay with M14 melanoma, in the assay on TK-10 renal and in the assay on SNB-75 CNS was greater than 100 µM throughout. In addition, the figures for the TGI in the assay with NCI-H460 lung, in the assay with HCT-15 colon and in the assay with MDA-N were greater than 100 µM, greater than 100 µM and 32.9 µM, respectively.
Take `CC(C)C(=O)/C=C/c1ccccc1`: the TGI with IGROV1 ovarian, with SF-295 CNS, in the assay with M14 melanoma, in the assay with SNB-75 CNS, in the assay with NCI-H460 lung and in the assay with OVCAR-3 ovarian was greater than 100 µM in each case.
For the molecule `O=C1C(Cl)C(c2cccc(O)c2)N1n1cnc2ccccc2c1=O` (stereo unspecified), the TGI in the assay on IGROV1 ovarian, in the assay on SF-295 CNS, in the assay with M14 melanoma, with TK-10 renal, with SNB-75 CNS and with NCI-H460 lung was greater than 100 µM each time. The TGI with HCT-15 colon and with OVCAR-3 ovarian was greater than 100 µM throughout.
